Values quoted from earlier work, collected in patent US20220249374A1, “RADIOTHERAPEUTIC MICROSPHERES” (priority 2019, published 2022).

System: HCC
Conditions: patients with HCC too advanced for resection or localized ablation

CNC(=O)c1cc(Oc2ccc(NC(=O)Nc3ccc(Cl)c(C(F)(F)F)c3)cc2)ccn1 [Nexavar, sorafenib]
prolongation of survival: three
